We go through 12 compounds from PubChem BioAssay (NCI).

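How tested: cells in 96-well plates exposed to compound for 48 hours at five concentrations. Here, GI50 denotes the concentration required for 50% inhibition of growth. TGI: total growth inhibition.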

Test systems include TK-10 renal; COLO 205 colon; UO-31 renal; OVCAR-4 ovarian; DU-145 prostate; M14 melanoma; UACC-257 melanoma.
What all share (experiment): NCI-60 cell line screen, 48 h

Take `COC(=O)c1cc2c(cc1Cl)SC(N(N(C)C)S(=O)(=O)c1ccc(Br)s1)=NS2(=O)=O`: the GI50 is 29.7 µM in the assay with TK-10 renal; 21.2 µM with COLO 205 colon; 27.3 µM in the assay on UO-31 renal; 19.2 µM in the assay with OVCAR-4 ovarian; 26.1 µM with DU-145 prostate; 23.2 µM in the assay with M14 melanoma. For the same compound, the TGI in the assay on TK-10 renal stood at 82.1 µM; in the assay on COLO 205 colon it was 50.9 µM; in the assay on UO-31 renal it was 81.3 µM; with OVCAR-4 ovarian, 53.7 µM; with DU-145 prostate, 86 µM; with M14 melanoma, 49.2 µM.

As to `C=C1C(=O)C23CC1C[C@H](OC(C)=O)[C@H]2C1(C)C(OC(C)=O)C[C@H](O)C(C)(C)[C@H]1C(=O)[C@@H]3OC(C)=O` (stereo partly drawn), the TGI in the assay with TK-10 renal worked out at 5.82 µM; in the assay on COLO 205 colon, 4.8 µM; with UO-31 renal, 9.75 µM; in the assay on OVCAR-4 ovarian it was 16.3 µM; in the assay with UACC-257 melanoma, 11 µM; with DU-145 prostate it was 25.7 µM. For the same compound, the TGI in the assay with M14 melanoma came out at 9.5 µM.

Regarding `CC(C)=CCCC(C)c1ccc(C)c2c1OCN(CC1CCNCC1)C2` (stereo not drawn), the GI50 with TK-10 renal was 14.4 µM; in the assay on COLO 205 colon, 1.86 µM; in the assay on UO-31 renal, 12.8 µM; in the assay on OVCAR-4 ovarian, 16 µM; with DU-145 prostate, 16.4 µM; in the assay with M14 melanoma, 10.2 µM. Besides, the TGI in the assay on TK-10 renal was found to be 29.3 µM; in the assay with COLO 205 colon, 3.41 µM; in the assay on UO-31 renal, 27.3 µM; in the assay with OVCAR-4 ovarian, 30.7 µM; with DU-145 prostate it was 32.2 µM; in the assay with M14 melanoma it was 24.5 µM.

Consider `O=c1c2cc(Cl)ccc2oc2ccc(OCCCCCN3CCCCC3)cc12`, for which the GI50 with TK-10 renal is 8.06 µM; in the assay on COLO 205 colon, 1 µM; with UO-31 renal, 3.98 µM; in the assay on OVCAR-4 ovarian, 5.5 µM; with UACC-257 melanoma, 1.3 µM; with DU-145 prostate, 6.4 µM. For the same compound, in the assay with M14 melanoma, the GI50 is 1.17 µM. The TGI amounted to 15 µM with TK-10 renal; 2.29 µM with COLO 205 colon; 10.4 µM in the assay with UO-31 renal; 11.9 µM with OVCAR-4 ovarian; 3.2 µM in the assay on UACC-257 melanoma; 12.7 µM in the assay on DU-145 prostate. This compound also came in with a TGI with M14 melanoma of 2.84 µM.

Consider `Cc1cc(C)c([O-])c(CN(C)CCN(C)Cc2cc(C)cc(C)c2[O-])c1.O=C([O-])c1cccc(C(=O)[O-])n1.[Ti+4]`, for which the GI50 in the assay on TK-10 renal was 1.71 µM; with COLO 205 colon, 2.4 µM; in the assay with UO-31 renal it was 2.26 µM; in the assay with OVCAR-4 ovarian it was 2.87 µM; in the assay on DU-145 prostate, 4.57 µM; with M14 melanoma, 1.7 µM. In addition, the TGI in the assay on TK-10 renal was 5.47 µM; with COLO 205 colon, 5.01 µM; with UO-31 renal, > 100 µM; with OVCAR-4 ovarian, > 100 µM; with DU-145 prostate, > 100 µM; in the assay on M14 melanoma, > 100 µM.

On to `CSc1nc(C)c2c(n1)SCC2`, for which the TGI in the assay on TK-10 renal, in the assay on COLO 205 colon, in the assay on UO-31 renal, in the assay on OVCAR-4 ovarian, in the assay on UACC-257 melanoma and in the assay on DU-145 prostate was > 10 µM in each case. For the same compound, the TGI in the assay on M14 melanoma is > 10 µM.

`COc1ccc([N+](=O)[O-])c2c(NCCCN(C)C)c3ccccc3nc12`: the TGI with TK-10 renal came out at 2.43 µM; with COLO 205 colon, 0.26 µM; in the assay on UO-31 renal it was 1.15 µM; in the assay on OVCAR-4 ovarian it was 0.206 µM; in the assay with UACC-257 melanoma it was 0.531 µM; with DU-145 prostate it was 1.79 µM. The compound further gave a TGI in the assay on M14 melanoma of 0.572 µM.

Take `CC12OC(c3ccccc3)=CC(c3ccc(Cl)cc3)=C1C(c1ccccc1)=CC2=O` (stereo not drawn): the GI50 was > 100 µM in the assay on TK-10 renal; 64.9 µM in the assay on COLO 205 colon; > 100 µM in the assay on UO-31 renal; 19 µM with OVCAR-4 ovarian; 49.3 µM in the assay with UACC-257 melanoma; > 100 µM with DU-145 prostate. Further, the GI50 in the assay on M14 melanoma is 28.2 µM. In addition, the TGI in the assay on TK-10 renal, in the assay with COLO 205 colon, in the assay with UO-31 renal, in the assay with OVCAR-4 ovarian, in the assay on UACC-257 melanoma and in the assay with DU-145 prostate was > 100 µM each time. The TGI in the assay with M14 melanoma was 83 µM.

Take `CC[C@H](NC(=O)[C@H](C)NC)C(=O)N1C[C@@H](O)C[C@H]1Cc1c(-c2[nH]c3cc(F)ccc3c2C[C@@H]2C[C@H](O)CN2C(=O)[C@H](CC)NC(=O)[C@H](C)NC)[nH]c2cc(F)ccc12`: the GI50 in the assay with TK-10 renal is > 100 µM; in the assay with COLO 205 colon, > 55.8 µM; in the assay on UO-31 renal, > 100 µM; in the assay with OVCAR-4 ovarian it was 0.0598 µM; in the assay with UACC-257 melanoma it was 0.0431 µM; with DU-145 prostate, > 100 µM. Moreover, the GI50 with M14 melanoma is > 100 µM. Moreover, the TGI in the assay with TK-10 renal, with COLO 205 colon, in the assay with UO-31 renal, in the assay with UACC-257 melanoma, in the assay with DU-145 prostate and in the assay with M14 melanoma was > 100 µM throughout.

Take `CCN(CC)c1cc2c3c(c1)CCCN3CCC2`: the TGI in the assay on TK-10 renal, in the assay with COLO 205 colon, with UO-31 renal, in the assay with OVCAR-4 ovarian, with UACC-257 melanoma and with DU-145 prostate was > 10 µM each time. Moreover, the TGI in the assay with M14 melanoma is > 10 µM.

In the case of `O=c1c(Oc2ccc(F)cc2F)cc2cnc(NC3CCOCC3)nc2n1C1CCS(=O)(=O)CC1`, the GI50 in the assay on TK-10 renal, in the assay on COLO 205 colon, in the assay with UO-31 renal, with OVCAR-4 ovarian, in the assay with UACC-257 melanoma and in the assay with DU-145 prostate was > 25 µM throughout. Further, in the assay on M14 melanoma, the GI50 is > 25 µM. The TGI in the assay on TK-10 renal, with COLO 205 colon, with UO-31 renal, in the assay on OVCAR-4 ovarian, in the assay with UACC-257 melanoma and with DU-145 prostate was > 25 µM throughout. In addition, the TGI with M14 melanoma is > 25 µM.

Take `CC(=O)[O-].CC(=O)[O-].[Pt+2].c1cscn1.c1cscn1`: the GI50 was > 100 µM in the assay with TK-10 renal; > 100 µM in the assay with COLO 205 colon; > 100 µM with UO-31 renal; 74.3 µM in the assay with OVCAR-4 ovarian; 31.9 µM with UACC-257 melanoma; 22.9 µM in the assay with DU-145 prostate. Besides, the GI50 in the assay with M14 melanoma was > 100 µM. The TGI was > 100 µM with TK-10 renal; > 100 µM with COLO 205 colon; > 100 µM with UO-31 renal; > 100 µM in the assay on OVCAR-4 ovarian; 85.3 µM with UACC-257 melanoma; > 100 µM in the assay with DU-145 prostate. The TGI in the assay with M14 melanoma was > 100 µM.
